Measured values reported in US20220127258A1, “AROMATIC RING OR HETEROAROMATIC RING COMPOUNDS, PREPARATION METHOD THEREFOR AND MEDICAL USE THEREOF” (The National Institutes of Pharmaceutical R&D Co., Ltd., priority 2019, published 2022).
pIC50: −log10 of the molar value.

Molecular target: T1, hERG channel (Homo sapiens, UniProt Q12809)
T1 construct: host or cells: HEK293 stably expressing hERG
Experiment: Effect on hERG channel, whole-cell membrane clamp
Assay type: cell-based
Settings: for hERG current inhibition ratio: n=3
Experimental: Extracellular fluid: 140 mM NaCl, 3.5 mM KCl, 1 mM MgCl2, 2 mM CaCl2, 10 mM glucose, 10 mM HEPES, 1.25 mM NaH2PO4, pH=7.4 (adjusted by NaOH).
Intracellular fluid: 20 mM KCl, 115 mM K-aspartic acid, 1 mM MgCl2, 5 mM EGTA, 10 mM HEPES, 2 mM Na2-ATP, pH=7.2 (adjusted by KOH).
The stock solution of the compound of Example 8 of the present invention (30.26 mM solution in DMSO) was successively diluted with 10 mL of extracellular fluid to obtain 0.3 μM, 1 μM, 3 μM, […], and 30 μM solutions.
The HEK293 cell line stably expressing the hERG potassium channel (supplier Creacell, catalog number A-0302) was cultured in DMEM medium containing 10% fetal bovine serum and 0.8 mg/mL G418. The culture temperature was 37° C., and the carbon dioxide concentration was 5%.
Cell passage: The old medium was removed, and the cells were washed with PBS once. 1 mL of TrypLE™ expression solution was added, and the cells were incubated at 37° C. for 0.5 minutes. When the cells detached from the bottom of the dish, 5 mL of 37° C. pre-warmed complete medium (DMEM medium containing 10% fetal bovine serum and 0.8 mg/mL G418) was added. The cell suspension was gently pipetted to separate the aggregated cells. The cell suspension was transferred to a sterile centrifuge tube, and centrifuged at 1000 rpm for 5 minutes to collect the cells. Expansion or maintenance culture, the cells were seeded in a 6 cm cell culture dish, and each cell culture dish was seeded with 2.5×10^5 cells (final volume: 5 mL). In order to maintain the electrophysiological activity of the cell, the cell density must not exceed 80%. The cells were separated by TrypLE™ expression solution, and 3×10^3 cells were placed on a cover slide and cultured in a 24-well plate (final volume: 500 μL). Membrane clamp test was carried out after 18 hours.
The voltage stimulus protocol of the whole-cell membrane clamp for recording the whole-cell hERG potassium current is as follows. When a whole-cell sealing was formed, the membrane clamp was disposed at −80 mV. The clamp voltage was depolarized from −80 mV to +30 mV for 2.5 seconds, and then quickly maintained at −50 mV for 4 seconds, which can excite the tail current of the hERG channel. −50 mV was used for leakage current detection in the test. The data was collected repeatly every 10 seconds to observe the effect of the compound on hERG tail current. The test data was collected by EPC-10 amplifier (HEKA) and stored in PatchMaster (HEKA) software.
A capillary glass tube (BF150-86-10, Sutter Instruments) was prepared into a recording electrode using a microelectrode puller (P97, Sutter Instruments). Microelectrode manipulator (MP285, Sutter Instruments) was manipulated under an inverted microscope (IX71, Olympus) to contact the recording electrode to the cell, and suction was applied under negative pressure to form a […]. After forming the […], a rapid capacitance compensation was performed, then a negative pressure was applied to break the cell membrane and create a whole-cell recording mode. A slow capacitor compensation was performed, and the membrane capacitance and series resistance were recorded without leakage compensation.
When the hERG current of the whole-cell record was stable, administration was conducted. Each concentration was tested for 5 minutes (or until the current was stable) before testing the next concentration. Multiple concentrations were tested for each test compound. The cover slide seeded with the cell was placed in a recording bath of an inverted microscope. The test compound and the compound-free extracellular fluid flowed through the recording chamber by gravity perfusion from low concentrations to high concentrations to act on the cell. Liquid exchange was performed using a vacuum pump in the record. For each cell, the current detected in the compound-free extracellular fluid was used as the control. Three cells were repeatly tested independently. All electrophysiological experiments were carried out at room temperature.

T1 sequence (Q12809 whole entry): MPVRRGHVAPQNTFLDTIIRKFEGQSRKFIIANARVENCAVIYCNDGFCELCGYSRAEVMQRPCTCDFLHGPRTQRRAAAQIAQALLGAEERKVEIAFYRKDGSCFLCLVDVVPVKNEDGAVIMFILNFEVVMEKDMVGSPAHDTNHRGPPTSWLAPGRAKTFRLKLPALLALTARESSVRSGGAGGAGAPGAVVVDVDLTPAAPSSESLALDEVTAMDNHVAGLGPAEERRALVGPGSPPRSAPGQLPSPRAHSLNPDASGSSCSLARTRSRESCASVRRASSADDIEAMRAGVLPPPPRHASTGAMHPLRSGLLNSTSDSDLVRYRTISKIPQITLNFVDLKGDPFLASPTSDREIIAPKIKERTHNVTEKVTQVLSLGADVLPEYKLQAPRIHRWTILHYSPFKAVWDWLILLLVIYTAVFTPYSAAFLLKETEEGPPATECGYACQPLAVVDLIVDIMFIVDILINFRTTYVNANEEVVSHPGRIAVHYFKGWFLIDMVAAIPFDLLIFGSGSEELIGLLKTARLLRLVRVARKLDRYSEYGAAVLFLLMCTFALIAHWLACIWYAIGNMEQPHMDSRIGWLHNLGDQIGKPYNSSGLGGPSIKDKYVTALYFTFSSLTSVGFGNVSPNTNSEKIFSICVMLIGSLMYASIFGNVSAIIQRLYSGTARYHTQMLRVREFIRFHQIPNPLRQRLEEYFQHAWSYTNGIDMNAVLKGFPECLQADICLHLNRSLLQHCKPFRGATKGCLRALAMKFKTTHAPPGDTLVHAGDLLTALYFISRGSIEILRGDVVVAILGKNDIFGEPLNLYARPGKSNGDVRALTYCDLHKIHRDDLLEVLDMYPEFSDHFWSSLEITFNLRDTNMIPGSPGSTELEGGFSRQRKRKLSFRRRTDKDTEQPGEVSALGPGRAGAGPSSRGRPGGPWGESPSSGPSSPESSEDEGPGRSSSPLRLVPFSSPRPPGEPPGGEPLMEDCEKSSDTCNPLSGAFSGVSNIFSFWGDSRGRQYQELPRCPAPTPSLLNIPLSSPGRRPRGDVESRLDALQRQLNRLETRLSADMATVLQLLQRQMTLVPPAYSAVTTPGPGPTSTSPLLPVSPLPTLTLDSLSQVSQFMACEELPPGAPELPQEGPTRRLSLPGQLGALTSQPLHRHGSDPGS

O=C(O)c1ccc(-c2nnc(N3[C@@H]4CC[C@H]3C[C@@H](OCc3c(-c5c(Cl)cccc5Cl)noc3C3CC3)C4)o2)cc1 [Example 8, 4-(5-((1R,3r,5S)-3-((5-cyclopropyl-3-(2,6-dichlorophenyl)isoxazol-4-yl)methoxy)-8-azabicyclo[3.2.1]octan-8-yl)-1,3,4-oxadiazol-2-yl)benzoic acid] was tested, and the “hERG current inhibition ratio” value (0.3 μM, HEK293 cell line stably expressing hERG) was −2.37 ± 0.62%, the “hERG current inhibition ratio” value (1 μM, HEK293 cell line stably expressing hERG) was −3.09 ± 0.30% and the “hERG current inhibition ratio” value (3 μM, HEK293 cell line stably expressing hERG) was 0.48 ± 1.78%. The “hERG current inhibition ratio” value (10 μM, HEK293 cell line stably expressing hERG) was 12.65 ± 2.25%, the “hERG current inhibition ratio” value (30 μM, HEK293 cell line stably expressing hERG) was 31.67 ± 1.86% and the pIC50 (HEK293 cell line stably expressing hERG, whole-cell membrane clamp, read-out: hERG semi-inhibiting concentration (IC50)) was < 4.52. The “inhibitory effect on hERG channel (in words)” value (conclusion of Test Example 3) was “no inhibitory effect on hERG channel”.
